This is an account of results in patent US9770446B2, “Piperidine urea derivatives” (MERCK PATENT GMBH, priority 2013, dated 2017).

One may read the IC50 as the concentration needed to halve the response being measured. The term EC50 denotes the concentration at which the effect is half-maximal.

The target in assay [1] is T1, GST-tagged Tankyrase-2 (873-1166 aa) (Homo sapiens, UniProt Q9H2K2).
T1 construct: GST-tagged Tankyrase-2 (873-1166 aa)
The experiment in a line: Tankyrase 2 autoparsylation HTRF enzyme assay. The conditions noted are these: read-out: IC50 TNKS2 enzyme assay. The format is biochemical. The method, then: Biochemical activity testing of Tankyrase 1 and 2: Autoparsylation assay
The autoparsylation assay is run in two steps: the enzymatic reaction in which GST-tagged Tankyrase-1, resp Tankyrase-2 transferred biotinylated ADP-ribose to itself from biotinylated NAD as co-substrate and the detection reaction where a time resolved FRET between cryptate labelled anti-GST bound to the GST tag of the enzyme and Xlent® labelled-streptavidin bound the biotin-parsylation residue is analysed. The autoparsylation activity was detectable directly via the increase in HTRF signal.
The autoparsylation assay is performed as 384-well HTRF® (Cisbio, Codolet, France) assay format in Greiner low volume nb 384-well microtiter plates and is used for high throughput screen. 250 nM GST-tagged Tankyrase-1 (1023-1327 aa), respectively about 250 nM GST-tagged Tankyrase-2 (873-1166 aa) and 5 μM bio-NAD (Biolog, Life science Inst., Bremen, Germany) as co-substrate are incubated in a total volume of 5 μl (50 mM HEPES, 4 mM Mg-chloride, 0.05% Pluronic F-68, 1.4 mM DTT, 0.5% DMSO, pH 7.7) in the absence or presence of the test compound (10 dilution concentrations) for 90 min at 30° C. The reaction is stopped by the addition of 1 μl 50 mM EDTA solution. 2 μl of the detection solution (1.6 μM SA-Xlent® (Cisbio, Codolet, France), 7.4 nM Anti-GST-K® (Eu-labelled anti-GST, Cisbio, Codolet, France) in 50 mM HEPES, 800 mM KF, 0.1% BSA, 20 mM EDTA, 0.1% CHAPS, pH 7.0) are added. After 1 h incubation at room temperature the HTRF is measured with an Envision multimode reader (Perkin Elmer LAS Germany GmbH) at excitation wavelength 340 nm (laser mode) and emission wavelengths 615 nm and 665 nm. The ratio of the emission signals is determined. The full value used is the inhibitor-free reaction. The pharmacological zero value used is XAV-939 (Tocris) in a final concentration of 5 μM. The inhibitory values (IC50) are determined using either the program Symyx Assay Explorer® or Condosseo® from GeneData.

For the next assay, the system named is Tankyrase. Put plainly: Cellular inhibition of Tankyrase: Axin2 level in DLD1 cells (Luminex). The assay is classed as cell-based. The settings on record: 24 hours, Axin2 increase, read-out: EC50 [M] TNKS cellular assay. In short, it runs like this:
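DLD1 colon carcinoma cells treated 24 h with seven-step serial dilutions in triplicate (0.3% DMSO final). Axin2 in cleared lysates captured on anti-Axin2 beads, detected with polyclonal anti-Axin2 plus PE secondary, and quantified by Luminex. EC50 from data normalized to solvent control; IWR-2 (3E-06 M) marks maximal Axin2 increase.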

The target of assay [2] is T2, GST-tagged Tnks-1 (1023-1327 aa) (Homo sapiens, UniProt O95271).
T2 construct: GST-tagged Tnks-1 (1023-1327 aa, prepared in-house); made in house
The experiment in a line: TNKS1 activity ELISA (autoparsylation assay). The format is biochemical. In short, it runs like this: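 Each GST-tagged enzyme (20 ng/well) was captured overnight at 4 °C on glutathione plates, then auto-ADP-ribosylated with 10 μM biotin-NAD for 1 h at 30 °C, pH 7.7, 0.5% DMSO, compound at 10 concentrations. Streptavidin-HRP chemiluminescence measured the signal. IC50 relative to inhibitor-free reaction, with 5 μM XAV-939 defining zero.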

T1 sequence (Q9H2K2 873-1166): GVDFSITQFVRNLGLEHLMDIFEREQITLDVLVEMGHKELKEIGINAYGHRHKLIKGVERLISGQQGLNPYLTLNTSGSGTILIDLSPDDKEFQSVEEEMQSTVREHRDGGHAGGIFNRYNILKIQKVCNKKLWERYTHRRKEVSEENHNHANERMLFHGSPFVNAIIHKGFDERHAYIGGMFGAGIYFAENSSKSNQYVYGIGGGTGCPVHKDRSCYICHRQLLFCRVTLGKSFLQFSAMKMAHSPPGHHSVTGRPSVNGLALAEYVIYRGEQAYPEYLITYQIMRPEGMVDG
T2 sequence (O95271 1023-1327): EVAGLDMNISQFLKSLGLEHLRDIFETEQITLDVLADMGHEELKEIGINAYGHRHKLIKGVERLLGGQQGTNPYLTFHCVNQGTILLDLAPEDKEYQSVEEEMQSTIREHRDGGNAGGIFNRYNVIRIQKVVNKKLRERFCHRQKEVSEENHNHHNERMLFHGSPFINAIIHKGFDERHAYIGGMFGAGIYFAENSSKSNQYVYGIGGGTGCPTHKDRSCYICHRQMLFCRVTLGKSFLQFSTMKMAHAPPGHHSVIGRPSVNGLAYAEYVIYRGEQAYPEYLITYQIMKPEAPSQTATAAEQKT

`CCN(C(=O)N1CCC(C(=O)c2cccc(C)c2)CC1)c1ccc(OC)cc1` [Compound A26, 4-(3-methyl-benzoyl)-piperidine-1-carboxylic acid ethyl-(4-methoxy-phenyl)amide]: the results for the half-inhibitory concentration (IC50) in assay [1] and in assay [2] were 300 to 3000 nM and less than 300 nM, respectively. Moreover, the concentration for a half-maximal effect (EC50) in the assay with Tankyrase was less than 3e-07 M.
The matching figures for `COc1ccc(N(C)C(=O)N2CCC(C(=O)c3ccc(C)cc3)CC2)cc1` [Compound A5, 4-(4-methyl-benzoyl)-piperidine-1-carboxylic acid (4-methoxy-phenyl)-methylamide]: 300 to 3000 nM, less than 300 nM and less than 3e-07 M.
With `COc1ccc(N(CCO)C(=O)N2CCC(C(=O)c3ccccc3)CC2)cc1` [Compound A15, 4-benzoyl-piperidine-1-carboxylic acid (2-hydroxy-ethyl)-(4-methoxy-phenyl)amide], the IC50 in assay [1] was 300 to 3000 nM; in assay [2], less than 300 nM. In the assay with Tankyrase, the half-maximal effective concentration (EC50) is 3e-07 to 3e-06 M.
Take `Cc1ccc(C(=O)C2CCN(C(=O)N3CCc4ccccc43)CC2)cc1` [Compound A17, (2,3-dihydro-indol-1-yl)-[4-(4-methyl-benzoyl)-piperidin-1-yl]-methanone]: the figures for the IC50 in assay [1] and in assay [2] were 300 to 3000 nM and less than 300 nM, respectively. Also, the half-maximal effective concentration (EC50) with Tankyrase lay in the range of 3e-07 to 3e-06 M.
With `CCN(C(=O)N1CCC(C(=O)c2ccc(OC)c(C)c2)CC1)c1ccc(OC)cc1` [Compound A24, 4-(4-methoxy-3-methyl-benzoyl)-piperidine-1-carboxylic acid ethyl-(4-methoxy-phenyl)-amide], the half-maximal inhibitory concentration (IC50) in assay [1] was 300 to 3000 nM; in assay [2], less than 300 nM. Further, the concentration giving a half-maximal response (EC50) with Tankyrase was less than 3e-07 M.
The matching figures for `COc1ccc(N(C)C(=O)N2CCC(C(=O)c3ccc(OC)c(F)c3)CC2)cc1` [Compound A29, 4-(3-fluoro-4-methoxy-benzoyl)-piperidine-1-carboxylic acid (4-methoxy-phenyl)-methyl-amide]: 300 to 3000 nM, less than 300 nM and less than 3e-07 M.
The matching figures for `COc1ccc(C(=O)C2CCN(C(=O)N(C)c3ccc(OC)cc3)CC2)cc1` [Compound A6, 4-(4-methoxy-benzoyl)-piperidine-1-carboxylic acid (4-methoxy-phenyl)methyl-amide]: 300 to 3000 nM, less than 300 nM and less than 3e-07 M.
For `COc1ccc(N(C)C(=O)N2CCC(C(=O)c3cccc(C)c3)CC2)cc1` [Compound A25, 4-(3-methyl-benzoyl)-piperidine-1-carboxylic acid (4-methoxy-phenyl)methyl-amide], the IC50 in assay [1] is 300 to 3000 nM; in assay [2] it was less than 300 nM. For the same compound, the EC50 in the assay with Tankyrase is less than 3e-07 M.
Turning to `COc1ccc(N(C)C(=O)N2CCC(C(=O)c3ccc(F)cc3)CC2)cc1` [Compound A8, 4-(4-fluoro-benzoyl)-piperidine-1-carboxylic acid (4-methoxy-phenyl)-methylamide], the values for the half-inhibitory concentration (IC50) in assay [1] and in assay [2] were 300 to 3000 nM and less than 300 nM, respectively. The EC50 in the assay on Tankyrase was less than 3e-07 M.
The matching figures for `COc1ccc(C(=O)C2CCN(C(=O)N3CCc4ccccc43)CC2)cc1` [Compound A18, (2,3-dihydro-indol-1-yl)-[4-(4-methoxy-benzoyl)-piperidin-1-yl]-methanone]: 300 to 3000 nM, less than 300 nM and 3e-07 to 3e-06 M.
Take `CCN(C(=O)N1CCC(C(=O)c2ccccc2)CC1)c1ccc(OC)cc1` [Compound A14, 4-benzoyl-piperidine-1-carboxylic acid ethyl-(4-methoxy-phenyl)-amide]: the IC50 is 300 to 3000 nM in assay [1] and less than 300 nM in assay [2]. Further, the EC50 in the assay with Tankyrase is less than 3e-07 M.
Turning to `CN(C(=O)N1CCC(C(=O)c2ccccc2)CC1)c1ccc(F)cc1` [Compound A13, 4-benzoyl-piperidine-1-carboxylic acid (4-fluoro-phenyl)-methyl-amide], the IC50 in assay [1] is 300 to 3000 nM; in assay [2] it was less than 300 nM. Besides, the concentration for a half-maximal effect (EC50) with Tankyrase is 3e-07 to 3e-06 M.
The matching figures for `CN(C(=O)N1CCC(C(=O)c2ccc(NS(C)(=O)=O)cc2)CC1)c1ccccc1` [Compound A38, 4-(4-methanesulfonylamino-benzoyl)-piperidine-1-carboxylic acid methyl-phenyl-amide]: 300 to 3000 nM, less than 300 nM and 3e-07 to 3e-06 M.
The matching figures for `CCN(C(=O)N1CCC(C(=O)c2cccc(OC)c2)CC1)c1ccc(OC)cc1` [Compound A28, 4-(3-methoxy-benzoyl)-piperidine-1-carboxylic acid ethyl-(4-methoxy-phenyl)amide]: less than 300 nM, less than 300 nM and less than 3e-07 M.
The matching figures for `O=C(c1ccccc1)C1CCN(C(=O)N2CCc3ccccc32)CC1` [Compound A16, (4-benzoyl-piperidin-1-yl)-(2,3-dihydro-indol-1-yl)-methanone]: 300 to 3000 nM, less than 300 nM and 3e-06 to 5e-05 M.
For the compound `Cc1cccc(N(C)C(=O)N2CCC(C(=O)c3ccccc3)CC2)c1` [Compound A1, 4-benzoyl-piperidine-1-carboxylic acid methyl-m-tolyl-amide], the IC50 in assay [1] is 300 to 3000 nM; in assay [2], less than 300 nM. Also, the half-maximal effective concentration (EC50) in the assay on Tankyrase lay in the range of 3e-07 to 3e-06 M.
With `CCOC(=O)CN(C(=O)N1CCC(C(=O)c2ccc(OC)cc2)CC1)c1ccccc1` [Compound A40, {[4-(4-methoxy-benzoyl)-piperidine-1-carbonyl]-phenyl-amino}-acetic acid ethyl ester], the values for the IC50 in assay [1] and in assay [2] were 300 to 3000 nM and less than 300 nM, respectively. The EC50 with Tankyrase was less than 3e-07 M.
The matching figures for `COc1ccc(N(C)C(=O)N2CCC(C(=O)c3cccc(OC)c3)CC2)cc1` [Compound A27, 4-(3-methoxy-benzoyl)-piperidine-1-carboxylic acid (4-methoxy-phenyl)methyl-amide]: 300 to 3000 nM, less than 300 nM and less than 3e-07 M.
With `COc1ccc(N(C)C(=O)N2CCC(C(=O)c3cccc(F)c3)CC2)cc1` [Compound A7, 4-(3-fluoro-benzoyl)-piperidine-1-carboxylic acid (4-methoxy-phenyl)-methylamide], the concentration for half-maximal inhibition (IC50) in assay [1] was 300 to 3000 nM; in assay [2], less than 300 nM. The EC50 in the assay with Tankyrase lay within 3e-07 to 3e-06 M.
On to `COc1ccc(N(C)C(=O)N2CCC(C(=O)c3ccccc3)CC2)cc1` [Compound A4, 4-benzoyl-piperidine-1-carboxylic acid (4-methoxy-phenyl)-methyl-amide], for which the results for the concentration for half-maximal inhibition (IC50) in assay [1] and in assay [2] were 300 to 3000 nM and less than 300 nM, respectively. Besides, the EC50 in the assay with Tankyrase lay in the range of 3e-07 to 3e-06 M.
Consider `Cc1ccc(N(C)C(=O)N2CCC(C(=O)c3ccccc3)CC2)cc1` [Compound A2, 4-benzoyl-piperidine-1-carboxylic acid methyl-p-tolyl-amide], for which the concentration for half-maximal inhibition (IC50) in assay [1] was 300 to 3000 nM; in assay [2], less than 300 nM. Also, the EC50 in the assay with Tankyrase lay in the range of 3e-07 to 3e-06 M.
